Columns and labels:
Paw Edema = test: Rat paw edema assay (carrageenan); assay type: in vivo; conditions: male Sprague-Dawley rats, 3 hr after carrageenan
Procedure: Male Sprague-Dawley rats (150–200 g) are fasted overnight and are given p.o., either vehicle (1% methocell) or a test compound in the morning. One hr later, a line drawn using a permanent marker at the level above the ankle in one hind paw to define the area of the paw to be monitored. The paw volume (VOh) is measured using a plethysmometer (Ugo-Basile, Italy) based on the principle of water displacement. The animals are then injected subplantarly with 50 ul of a 1% carrageenan solution in saline (sigma Chem) into the paw using an insulin syringe with a 25-gauge needle (i.e. 500 ug carrageenan per paw). Three hr later, the paw volume (V3h) is measured and the increases in paw volume (V3h−VOh) are calculated. Paw edema data are the compared with the vehicle-control group and percent inhibitions calculated taking the values in the control group as 100%. All treatment groups are coded to eliminate observer bias.

microsomal human COX-1 = target: T1, microsomal human COX-1 (Homo sapiens, UniProt P23219); test: Microsomal cyclooxygenase assay, COX-1; assay type: biochemical; conditions: microsomal fraction, PGE2 by EIA; read-out: IC50 against microsomal human COX-1
T1 construct: from which microsomes are prepared for microsomal assays, are human osteosarcoma 143 cells; endogenous in cells; host or cells: human U-937 cells (microsomal fraction)
T1 sequence (P23219 24-599): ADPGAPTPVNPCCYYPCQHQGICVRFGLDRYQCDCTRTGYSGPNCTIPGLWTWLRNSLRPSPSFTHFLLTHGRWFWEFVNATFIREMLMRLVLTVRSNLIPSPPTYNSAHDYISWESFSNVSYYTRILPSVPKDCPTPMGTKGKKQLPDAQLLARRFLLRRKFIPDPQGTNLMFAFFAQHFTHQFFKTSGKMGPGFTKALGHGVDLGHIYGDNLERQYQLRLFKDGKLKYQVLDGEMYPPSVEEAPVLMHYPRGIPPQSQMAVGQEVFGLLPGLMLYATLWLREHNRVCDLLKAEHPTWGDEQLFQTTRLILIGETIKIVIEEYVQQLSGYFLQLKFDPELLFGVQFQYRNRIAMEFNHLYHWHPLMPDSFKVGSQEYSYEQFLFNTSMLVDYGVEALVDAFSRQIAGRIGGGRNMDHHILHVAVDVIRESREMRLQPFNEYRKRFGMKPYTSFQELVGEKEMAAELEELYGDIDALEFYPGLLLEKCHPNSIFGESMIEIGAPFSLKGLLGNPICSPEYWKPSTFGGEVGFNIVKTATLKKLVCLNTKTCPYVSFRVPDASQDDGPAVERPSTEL
Procedure: (§1) Compounds are tested as inhibitors of cyclooxygenase activity in whole cell and microsomal cyclooxygenase assays. Both of these assays measure prostaglandin E2 (PGE2) synthesis in response to arachidonic acid, using a radioimmunoassay. Cells used for whole cell assays, and from which microsomes are prepared for microsomal assays, are human osteosarcoma 143 cells (which specifically express cyclooxygenase-2) and human U-937 cells (which specifically express cyclooxygenase-1). In these assays, 100% activity is defined as the difference between prostaglandin E2 synthesis in the absence and presence of arachidonate addition. IC50 values represent the concentration of putative inhibitor required to return PGE2 synthesis to 50% of that obtained as compared to the uninhibited control.
(§2) Cox microsomal fractions are prepared as previously described (Percival et al., Arch. Biochem. Biophys. (1994) 315:111–118). The enzyme reactions are performed in 50 mM KPi pH 8.0, 1 μM heme, 1 mM phenol supplemented with 10 μg/ml of each Cox-1 or Cox-2 microsomal fractions. 1 μl DMSO or test compound (100 fold stock concentrated in DMSO) are added to 100 μl buffer. The enzyme reaction is initiated 15 minutes later by the addition of 10 μl of 100 μM arachidonic acid. […] PGE2 levels are then determined by EIA (Assay Designs) using the manufacturer's instruction.

microsomal human COX-2 = target: T2, microsomal human COX-2 (Homo sapiens, UniProt P35354); test: Microsomal cyclooxygenase assay, COX-2; assay type: biochemical; conditions: microsomal fraction, PGE2 by EIA; read-out: IC50 against microsomal human COX-2
T2 construct: from which microsomes are prepared for microsomal assays, are human osteosarcoma 143 cells; endogenous in cells; host or cells: human osteosarcoma 143 cells (microsomal fraction)
T2 sequence (P35354 18-604): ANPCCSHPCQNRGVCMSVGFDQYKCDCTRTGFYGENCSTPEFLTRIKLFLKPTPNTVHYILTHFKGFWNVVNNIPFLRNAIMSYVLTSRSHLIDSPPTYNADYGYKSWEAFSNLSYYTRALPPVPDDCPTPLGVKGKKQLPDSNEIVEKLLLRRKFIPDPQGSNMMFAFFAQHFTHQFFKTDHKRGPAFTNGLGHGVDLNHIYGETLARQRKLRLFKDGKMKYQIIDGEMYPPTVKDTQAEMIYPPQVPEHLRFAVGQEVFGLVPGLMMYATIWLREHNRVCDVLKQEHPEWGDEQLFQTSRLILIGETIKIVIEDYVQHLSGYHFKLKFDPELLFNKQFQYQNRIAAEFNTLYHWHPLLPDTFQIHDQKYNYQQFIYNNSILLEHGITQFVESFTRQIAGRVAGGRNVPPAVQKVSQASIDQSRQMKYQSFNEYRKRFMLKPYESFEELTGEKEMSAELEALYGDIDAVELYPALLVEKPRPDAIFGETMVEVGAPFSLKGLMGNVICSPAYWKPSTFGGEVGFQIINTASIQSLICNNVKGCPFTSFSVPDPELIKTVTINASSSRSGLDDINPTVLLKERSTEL
Procedure: as §1, §2

## COC(=O)/C(=C(\COC(=O)OCCCCO[N+](=O)[O-])c1ccc(S(C)(=O)=O)cc1)c1ccccc1 [Example 3, methyl (2Z)-3-[4-(methylsulfonyl)phenyl]-4-({[4-(nitrooxy)butoxy]carbonyl}oxy)-2-phenylbut-2-enoate]
Paw Edema; dose 1 mg/kg p.o.
  Paw Edema (% inhibition): 42%
Paw Edema; dose 3 mg/kg p.o.
  Paw Edema (% inhibition): 51%
Paw Edema; dose 10 mg/kg p.o.
  Paw Edema (% inhibition): 68%
Paw Edema; dose 30 mg/kg p.o.
  Paw Edema (% inhibition): 79%

## CCOC(=O)/C(=C(\COC(=O)OCCCCCCO[N+](=O)[O-])c1ccc(S(C)(=O)=O)cc1)c1ccccc1 [Example 9, Ethyl (2Z)-3-[4-(methylsulfonyl)phenyl]-4-[({[6-(nitrooxy)hexyl]oxy}carbonyl)oxy]-2-phenylbut-2-enoate]
Microsomal human COX-1
  IC50: > 100 µM
Microsomal human COX-2
  IC50: > 100 µM
